The results in this text go back to patent publication US20100210649A1, “PYRIDAZINONES AND FURAN-CONTAINING COMPOUNDS” (Sloan-Kettering Institute for Cancer Research, priority 2006, published 2010).

Assay [1] relates to H820. Put plainly: Dose response study (Alamar Blue), H820. The assay is classed as cell-based. The note with it: Homo sapiens, NCI-H820; H820; 12 point doubling dilution 10 uM to 5 nM; 48 h treatment, alamar blue additional 48 h; read-out: IC50 H820. How it is done:
(§1) Dose response studies against 34 compounds from the pyridazinone and phenylfuran-carboxamide class were conducted. […] In addition, Tarceva was included in these dose response studies.
(§2) The dose response studies were done with the following standard procedure. First, the cells were counted and dispensed at 250 cells/well into 384-well microplates with compound. The cells were incubated for 48 hours at 37 C to complete treatment, and then alamar blue was added for an additional 48 hours. Finally, alamar blue reduction was measured and the data was loaded into ORIS, our data screening acquisition platform.
A general note: Alamar Blue is a resazurin reagent that responds to reducing activity.

For assay [2], the system named is H1650. Put plainly: Non Small Cell Lung Cancer proliferation assay (Alamar Blue reduction), H1650. The assay is classed as cell-based, human. Put shortly:
(§3)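 Viability after 48 hours of drug exposure at 37° C is scored by Alamar Blue reduction over a subsequent 48 hours, read at 530/590 nm. DMSO-only wells (1% final) define the high control.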

In assay [3] the test system is PC9. Put plainly: Dose response study (Alamar Blue), PC9. The assay is classed as cell-based. To be noted: Homo sapiens, PC-9; PC9; 12 point doubling dilution 10 uM to 5 nM; 48 h treatment, alamar blue additional 48 h; read-out: IC50 PC9. How it is done:
as §1, §2

The test system of assay [4] is H3255. Put plainly: Non Small Cell Lung Cancer proliferation assay (Alamar Blue reduction), H3255. Type of assay: cell-based, human. Put shortly: as §3
Assay [5] concerns H2444. Put plainly: Dose response study (Alamar Blue), H2444. Type of assay: cell-based. The note with it: Homo sapiens, NCI-H2444; H2444; 12 point doubling dilution 10 uM to 5 nM; 48 h treatment, alamar blue additional 48 h; read-out: IC50 H2444. The procedure: as §1, §2
The subject of assay [6] is H23. Put plainly: Dose response study (Alamar Blue), H23. Type of assay: cell-based. To be noted: Homo sapiens, NCI-H23; H23; 12 point doubling dilution 10 uM to 5 nM; 48 h treatment, alamar blue additional 48 h; read-out: IC50 H23. The procedure:
as §1, §2

Assay [7] concerns H460. Put plainly: Dose response study (Alamar Blue), H460. To be noted: Homo sapiens, NCI-H460; H460; 12 point doubling dilution 10 uM to 5 nM; 48 h treatment, alamar blue additional 48 h; read-out: IC50 H460. The assay is classed as cell-based. How it is done: as §1, §2
For assay [8], the system named is HPL1D (human peripheral lung epithelial) cell line. Put plainly: Cell proliferation / dose response (Alamar Blue), HPL1D. The assay is classed as cell-based. To be noted: HPL1D, 12 point doubling dilution 10 uM to 5 nM, 48 h treatment, alamar blue additional 48 h, read-out: IC50 HPL1D. The procedure:
WI-38: human lung fibroblast cell line. […] WT: wildtype; WT*: over-expressed wildtype. Dose response studies against 34 compounds from the pyridazinone and phenylfuran-carboxamide class were conducted. […] In addition, Tarceva was included in these dose response studies. The dose response studies were done with the following standard procedure. […] The cells were incubated for 48 hours at 37 C to complete treatment, and then alamar blue was added for an additional 48 hours. Finally, alamar blue reduction was measured and the data was loaded into ORIS, our data screening acquisition platform.

In assay [9] the test system is A549. Put plainly: Dose response study (Alamar Blue), A549. Type of assay: cell-based. The note with it: Homo sapiens; A549; 12 point doubling dilution 10 uM to 5 nM; 48 h treatment, alamar blue additional 48 h; read-out: IC50 A549. How it is done: as §1, §2
In assay [10] the test system is H2030. Put plainly: Non Small Cell Lung Cancer proliferation assay (Alamar Blue reduction), H2030. Type of assay: cell-based, human. In outline: as §3
[11] abbreviates: Homo sapiens, NCI-H1650, 48 h, H1650, 12 point doubling dilution 10 uM to 5 nM, 48 h treatment, alamar blue additional 48 h, read-out: IC50 H1650.
Where [12] appears, read: Homo sapiens, NCI-H1650, dose response 10 M to 5 nM, IC50, read-out: Dose Response (uM) H1650.
[13] abbreviates: Homo sapiens, NCI-H3255, 48 h, H3255, 12 point doubling dilution 10 uM to 5 nM, 48 h treatment, alamar blue additional 48 h, read-out: IC50 H3255.
[14] abbreviates: Homo sapiens, NCI-H3255, dose response 10 M to 5 nM, IC50, read-out: Dose Response (uM) H3255.
Setting [15] is: Homo sapiens, NCI-H2030, 48 h, H2030, 12 point doubling dilution 10 uM to 5 nM, 48 h treatment, alamar blue additional 48 h, read-out: IC50 H2030.
The mark [16] stands for this setting: Homo sapiens, NCI-H2030, dose response 10 M to 5 nM, IC50, read-out: Dose Response (uM) H2030.
Setting [17] is: percentage inhibition, 10 μM compound in 1% DMSO (v/v).

Each structure is given as a SMILES string. Several values for one entry are separate records, joined by “and”; a condition that tells them apart may be missing. Identical values can stand only once. Like-named read-outs stand apart in the source and are kept apart here.

As to `Cc1cccc(-n2ncc(Cl)c(Cl)c2=O)c1C` [compound 257018], the IC50 in assay [1] is 340 nM; in assay [2] (setting [11]), 1.69 µM; in assay [2] (setting [12]) it was 2.42 µM; in assay [3] it was 1570 nM; in assay [4] (setting [13]) it was 1.86 µM; in assay [4] (setting [14]) it was 1.63 µM. The IC50 in assay [5] was 850 nM; in [6], 240 nM; in assay [7], 3.51 µM; in assay [8] it was 1300 nM; in assay [9], 2.27 µM; in assay [10] (setting [15]), 0.9 µM. The IC50 in assay [10] (setting [16]) is 0.89 µM.

Consider `O=c1c(Cl)c(Cl)cnn1-c1ccc2c(c1)CCC2` [compound 267066], for which the IC50 was 2800 nM in [1]; more than 10 µM in assay [2] (setting [11]); 1.69 µM in assay [2] (setting [12]); 5870 nM in [3]; 4.61 µM in assay [4] (setting [13]); 1.35 µM in assay [4] (setting [14]). Besides, the IC50 in [5] came to 1530 nM; in assay [6], 2040 nM; in assay [7] it was 6.56 µM; in [8], 1660 nM; in assay [9], 7.52 µM; in [10] (setting [15]) it was 2.34 µM. Besides, the IC50 in [10] (setting [16]) was found to be 1.41 µM.

`Cc1nc2cc(-n3ncc(Cl)c(Cl)c3=O)ccc2s1` [compound 267067]: the IC50 in [1] is 8250 nM; in assay [2] (setting [11]), more than 10 µM; in [2] (setting [12]) it was 4.47 µM; in assay [3], more than 10000 nM; in assay [4] (setting [13]), more than 10 µM; in [4] (setting [14]) it was 3.64 µM. For the same compound, the IC50 in assay [5] was 6920 nM; in assay [6], 5680 nM; in assay [7], more than 10 µM; in [8], 7010 nM; in [9], more than 10 µM; in [10] (setting [15]) it was 9.19 µM. Also, the IC50 in assay [10] (setting [16]) is 3.04 µM.

Take `Cc1cccc(NC(=O)c2ccc([N+](=O)[O-])o2)c1` [compound 71762]: the IC50 in [1] came to 3610 nM; in assay [2] (setting [11]) it was 0.63 µM; in [2] (Homo sapiens, NCI-H1650, phenylfuran-2-carboxamide SAR summary, read-out: IC50(uM) 1650), 0.43 µM; in assay [2] (phenylfuran-2-carboxamide SAR summary, read-out: IC50(uM) 1650), 0.41 µM; in [3] it was 1890 nM; in assay [4] (setting [13]), 2.41 µM. For the same compound, the IC50 in [4] (Homo sapiens, NCI-H3255, phenylfuran-2-carboxamide SAR summary, read-out: IC50(uM) 3255) is 0.95 µM; in assay [4] (phenylfuran-2-carboxamide SAR summary, read-out: IC50(uM) 3255), 1.01 µM; in assay [5], 3800 nM; in [6], 830 nM; in assay [7], 1.85 µM; in assay [8], more than 10000 nM. Moreover, the IC50 stood at 1.46 µM in [9]; 0.99 µM in assay [10] (setting [15]); 1.43 µM in assay [10] (Homo sapiens, NCI-H2030, phenylfuran-2-carboxamide SAR summary, read-out: IC50(uM) 2030); 1.46 µM in assay [10] (phenylfuran-2-carboxamide SAR summary, read-out: IC50(uM) 2030). Further, the inhibition at 10 µM in [2] (Homo sapiens, NCI-H1650, primary screening, H1650, 10 μM compound in 1% DMSO (v/v), read-out: PRIMARY HTS [%] H1650 (percentage inhibition)) stood at 104%; in [4] (Homo sapiens, NCI-H3255, primary screening, H3255, 10 μM compound in 1% DMSO (v/v), read-out: PRIMARY HTS [%] H3255 (percentage inhibition)) it was 100%; in [10] (Homo sapiens, NCI-H2030, primary screening, H2030, 10 μM compound in 1% DMSO (v/v), read-out: PRIMARY HTS [%] H2030 (percentage inhibition)), 101%. Moreover, the “CONFIRMATION [%] 1650” value in [2] (setting [17]) is 135% and 106%. Besides, in assay [4] (setting [17]), the “CONFIRMATION [%] 3255” value was 122% and 97%. For the same compound, the “CONFIRMATION [%] 2030” value in [10] (setting [17]) is on record as 103%.

As to `O=c1c(Br)c(Br)cnn1-c1cccc(C(F)(F)F)c1` [compound 267072], the IC50 in assay [1] turned out to be 820 nM; in assay [2] (setting [11]) it was 2.09 µM; in assay [2] (setting [12]) it was 0.54 µM; in assay [3] it was 2590 nM; in assay [4] (setting [13]), 1.64 µM; in assay [4] (setting [14]), 1 µM. For the same compound, the IC50 worked out at 1050 nM in [5]; 840 nM in assay [6]; 2.76 µM in assay [7]; 510 nM in [8]; 3.42 µM in assay [9]; 0.85 µM in assay [10] (setting [15]).

In general, inhibition refers to the relative decrease from the control value, in per cent.
